Key:
C13 = test: Cytotoxicity against cisplatin-resistant cell lines (C13*); assay type: functional, cell-based, Homo sapiens
HL-60 = test: Cytotoxicity against HL-60 leukemia cells; assay type: functional, cell-based, Homo sapiens
[1] = Cytotoxicity against human ovarian 2008 (wild type) cell lines; assay type: functional, cell-based

Molecule: CNC(=S)N(C)CCNc1c2ccccc2nc2ccccc12
- IC50 (C13; Homo sapiens, C13): 3.7 µM
- IC50 (HL-60; Homo sapiens, HL-60): 11 µM
- IC50 ([1]; Homo sapiens): 2.2 µM

Molecule: 9-acridinylmethylamino-methylaminomethanethione1-PtCl(en)
- IC50 (C13; c13): > 100 µM
- IC50 (HL-60; hl-60): 75 µM
- IC50 [1]: > 100 µM

Molecule: 2-(9-acridiniumylamino)ethyl(methyl)amino(imino)methyl(methyl)amine1-PtCl(en)
- IC50 (C13; c13): 9.6 µM
- IC50 (HL-60; hl-60): 0.13 µM
- IC50 [1]: 3.8 µM
